Source: PMC4725915, “Ruthenium(II) Complexes with 2-Phenylimidazo[4,5-f][1,10]phenanthroline Derivatives that Strongly Combat Cisplatin-Resistant Tumor Cells” (Scientific Reports, 2016)

How the values were obtained:
[1] = system: A549R cells; test: Subcellular distribution study by ICP-MS; format: cell-based, human; conditions: 2.0 μM, 12 h
Experimental: To understand the high sensitivity of cancer cells to Ru(II) complexes, the extent of cellular uptake was investigated with inductively coupled plasma mass spectrometry (ICP-MS) by treating the HeLa, A549, A549R and LO2 cell lines with 2.0 μM concentrations of the Ru(II) complexes and cisplatin for 12 h. […] In this study, the cellular uptake and lipophilicity were distinctly correlated and followed the order: 4 >3 >2 >1. Complex 4 had the best accumulation, but the amount of Ru in LO2 cells was far less than that in the three cancer lines, indicating selective accumulation and improved efficiency for treating cancer. Cisplatin was taken up more efficiently by the sensitive cell line (A549) than by the cisplatin-resistant cell line (A549R). […] However, less than 1.5% of the cellular platinum was accumulated in the mitochondrial fraction of the A549R cells. Therefore, complex 4 could function in a different manner than cisplatin in A549R cells, which would be an appropriate solution to combat cisplatin resistance in tumor cells.
A549R cells were plated at a density of 1 × 10^5 cells/mL in 10 mL of DMEM for 24 h at 37 °C under 5% CO2 and 20% O2. […] The ruthenium or platinum contents were determined using inductively coupled plasma mass spectrometry (ICP-MS Thermo Elemental Co., Ltd.).

[2] = system: A549R cells; test: Real-time cell growth and proliferation assay (xCELLigence); format: cell-based, human
Experimental: In addition, a real-time cell growth and proliferation assay using an xCELLigence System was utilized to confirm the high toxicity of complex 4 on A549R cells. […] In contrast, A549R cells were killed by treatment with complex 4 in a concentration-dependent manner.
This experiment was performed using an xCELLigence RTCA DP system real time cell analyzer (Roche Diagnostics GmbH, Germany). In brief, 80 μL of cell culture media was added to each well of a 16-well plate (E-plate 16, Roche Diagnostics GmbH, Germany). The 16-well plates were then connected to the system and checked for suitable electrical contacts in the real time cell analyzer, and the background impedance was measured for 24 s. Meanwhile, the A549R cells were suspended in cell culture medium and adjusted to 5 × 10^4 cells/mL, and 100 μL of each cell suspension was added to each well of […]. Approximately 24 h after seeding, the A549R cells were in the logarithmic phase of growth, and a wide range of concentrations of complex 4 and cisplatin (100 μM) were added. The cells were automatically monitored every 15 min over 48 h by the xCELLigence system. Data were analyzed using RTCA software (version 1.2) that was supplied with the instrument.

[3] = system: A549R cells; test: Intracellular ROS (DCFH-DA staining); format: cell-based, human; conditions: 0.5 μM, 12 h
Experimental: TrxR is a key enzyme in the regulation of the intracellular redox environment. However, cellular oxidative stress is known to trigger the initiation of apoptotic signaling, which results in cell death. Complex 4 was proven to inhibit the activity of TrxR and could induce severe oxidative stress in A549R cells. To assess the capacity of complex 4 to generate intracellular reactive oxygen species (ROS), A549R cells were treated with different concentrations of complex 4 for 12 h and stained with 2′,7′-dichlorofluorescein diacetate (DCFH-DA)[46]. DCFH-DA is an oxidation-sensitive dye that is specifically detected by measuring the enhanced green fluorescent intensity caused by intracellular ROS. This dye was used to quantify the generation of intracellular ROS. […] These findings were further confirmed with flow cytometric analyses (Fig. 5d).
The generation of reactive oxygen species (ROS) in A549R cells was measured using a ROS sensitive fluorescent probe, 2,7-dichlorodihydrofluorescein diacetate (DCFH-DA). […] The levels of intracellular ROS were examined with an inverted fluorescence microscope (Zeiss Axio Observer D1) and flow cytometry (FACSCanto II, BD Biosciences, USA). The excitation wavelength was 485 nm, and the fluorescence was measured at 530 nm. […]

[4] = Distribution coefficient (log Po/w), flask-shaking, n-octanol/phosphate buffer; format: physicochemical; conditions: n-octanol / phosphate buffer pH 7.4, 37 °C; in words only (Figure S8)
Experimental: Distribution coefficients (log Po/w) were determined by liquid-liquid extraction between n-octanol (oil) and phosphate buffers (0.2 M, pH 7.4) with the flask-shaking method. N-Octanol and the buffer were mutually saturated with each other for at least 24 h before use. An aliquot of a ruthenium complex stock solution was added to the phosphate buffer concentrations at <10 mg/mL, and the mixture was shaken at 100 rpm for 24 h at 37 °C to allow for adequate partitioning. After the sample was centrifuged at 3000 rpm for 20 min, the aqueous layer was used for ruthenium analysis, and the Ru content in the aqueous layer was measured by ICP-MS and used to calculate the log Po/w.

[5] = system: TrxR; test: TrxR activity assay in A549R cells (DTNB reduction); format: cell-based, human; conditions: 4.0 μM, 12 h
Text: The elevated levels of TrxR in cancers, especially in non-small cell lung cancers, are responsible for drug resistance. The thioredoxin system has a significant influence on intracellular physiological processes, such as antioxidant defense, cell functions, cell apoptosis and cell proliferation. TrxR has previously been identified as a drug target. […] In addition, the expression levels of TrxR in A549R cells in response to the addition of complex 4 were also examined by Western blot analysis.
A549R cells (2 × 10^6 cells) treated or untreated with complex 4 for 12 h were homogenized in 100–200 μl of cold assay buffer on ice and a protease inhibitor cocktail was added to the sample; the sample was then centrifuged at 10,000 x g for 15 min at 4 °C. The supernatant was collected for the assay and stored on ice. The protein concentration of each supernatant was determined using the Bradford reagent. A total of 40 μl of the reaction mix (30 μl assay buffer, 8 μl 5, 5′-dithiobis (2-nitrobenzoic) acid (DTNB) solution and 2 μl NADPH) was added to each sample and incubated at 25 °C for 20 min. TrxR catalyzes the reduction of DTNB by NADPH to 5-thio-2-nitrobenzoic acid (TNB2), which generates a strong yellow color (λmax = 412 nm); consequently, the amount of […] was used to monitor the change in absorbance at 412 nm. […]

Ru(phen)(bzq)(tbtfpip)(PF6) [Complex 4]
share of cellular metal accumulated in the mitochondrial fraction [1]: over 55% | effect on A549R cell proliferation (xCELLigence) ([2]; 0.5 μM): began to die after a short delay | effect on A549R cell proliferation (xCELLigence) ([2]; 2.0 μM): rapidly abolished cellular proliferation | intracellular ROS levels [3]: increase in ROS | log Po/w [4]: largest | decline of intracellular TrxR activity [5]: approximately 45%
